Where two headings read alike, the source gives them in different places.
How the values were obtained:
Type in all cases: cell-based
[1] = tested on: CV-1 cells; experiment: selective killing assay, colony number reduced to 50% of control, normal monkey kidney epithelial cell line CV-1; details: 24 hours treatment; for IC50: Primates
Description: The control received culture media only.

[2] = tested on: CX-1 cells; experiment: selective killing assay, colony number reduced to 50% of control, human colon carcinoma cell line CX-1; details: for IC50 / CX-1 (IC50): human colon carcinoma, 24 hours treatment, colony count after 7 to 10 days;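 for all read-outs here: colonies stained with crystal violet and counted, control cells given medium alone, exposure at 37 °C, normal monkey kidney epithelial CV-1 cells as the non-cancer comparator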
[3] = tested on: LOX cells; experiment: colony assay of Example 1 with human melanoma LOX cell line; details: for Selectivity: CV-1/LOX;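 for all read-outs here: colony formation assay with 24 h exposure at 37 °C, then 7 to 10 days of regrowth, crystal violet staining of colonies, control wells given medium alone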
Description: (§1) Human colon carcinoma cell line CX-1 or normal monkey kidney epithelial cell line CV-1 was chosen as representatives of cancer cells and normal cells, respectively. […] CX-1 cells (2,000 cells/well) and CV-1 cells (1,000 cells/well) were plated in 24-well plastic culture plates. […] The control received culture media only. Cells were treated with compounds of General Formulas (I) to (V) at 37° C. for 24 hours. After rinsing with fresh culture medium three times, the cells were further incubated at 37° C. for 7 to 10 days. Cell colonies were fixed and stained with 2% crystal violet in 70% ethanol for 10 minutes and rinsed in water. […] The selectivity is defined as the ratio of IC50 for CV-1 and IC50 for CX-1.

[4] = tested on: CRL 1420 cells; experiment: colony assay of Example 1 with human pancreatic carcinoma CRL 1420 cell line; details: for Selectivity: CV-1/CRL-1420; for IC50: Homo sapiens, 24 h;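 for all read-outs here: colony formation assay, cells exposed for 24 h then regrown 7 to 10 days without compound, colonies stained with crystal violet, control given medium alone, normal reference CV-1 monkey kidney epithelial cells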
Description: as §1

[5] = tested on: EJ cells; experiment: colony assay of Example 1 with human bladder carcinoma EJ cell line; details: for Selectivity: CV-1/EJ; for IC50: Homo sapiens, EJ, 24 h, Table IV, human bladder carcinoma, 24 hours treatment;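 for all read-outs here: colony formation assay with 24 h compound exposure at 37 °C, then 7–10 days drug-free regrowth, colonies stained with crystal violet, controls given medium alone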
[6] = CV-1, Table III, normal monkey kidney epithelial cells, colony count after 7 to 10 days
[7] = Table III, normal monkey kidney epithelial cells, colony count after 7 to 10 days
[8] = Table VII, human pancreatic carcinoma, 24 hours treatment

Row | Compound | IC50 [1, 6] [µg/mL] | Selectivity (ratio of IC50 for CV-1 and IC50 for CX-1) ([2]; CV-1/CX-1) | IC50 ([2]; Homo sapiens, CX-1, Table III) [µg/mL] | also measured
1 | CCN1C(=CC=c2sc(=Cc3sc4c([n+]3CC)CCCC4)n(CC)c2=O)Oc2ccccc21 [C, reference compound] | 2 | 50 | 0.04 | 
2 | CCn1c(=CC2=[N+](C)c3ccccc3C2(C)C)sc(=C2Sc3ccccc3N2C)c1=O [Compound 17] | 10 | 167 | 0.06 | 
3 | CCn1c(=Cc2cccc[n+]2CC)sc(=C2Sc3ccccc3N2C)c1=O [Compound 18] | 20 | 4000 | 0.005 | 
4 | CCn1c(=Cc2ccc3ccccc3[n+]2CC)sc(=C2Sc3ccccc3N2C)c1=O [Compound 20] | 2 |  | 0.02 | Selectivity (ratio of IC50 for CV-1 and IC50 for CX-1) [2]: 100
5 | CCn1c(=Cc2cc[n+](CC)c3ccccc23)sc(=C2Sc3ccccc3N2C)c1=O [Compound 24] | 1.5 | 150 | 0.01 | 
6 | CCn1c(=Cc2oc3ccccc3[n+]2C)sc(=C2Sc3ccccc3N2C)c1=O [Compound 25] |  | 150 |  | CV-1 (IC50) [1, 7]: 6 µg/mL; CX-1 (IC50) ([2]; Table III): 0.04 µg/mL
7 | CCn1c(=Cc2scc(C)[n+]2CC)sc(=C2Sc3ccccc3N2C)c1=O [Compound 32] | 6 | 150 | 0.04 | 
8 | CCn1c(=Cc2oc3ccccc3[n+]2CC)sc(=C2Sc3ccccc3N2C)c1=O [Compound 34] |  | 267 |  | CV-1 (IC50) [1, 7]: 8 µg/mL; CX-1 (IC50) ([2]; Table III): 0.03 µg/mL
9 | CCn1c(=Cc2oc3ccc(OC)cc3[n+]2CC)sc(=C2Sc3ccccc3N2C)c1=O [Compound 35] | 6 | 150 | 0.04 | 
10 | CCn1c(=Cc2oc3ccccc3[n+]2CC)sc(=C2Sc3ccccc3N2C)c1=O [Compound 38] |  | 333 |  | CV-1 (IC50) [1, 7]: 10 µg/mL; CX-1 (IC50) ([2]; Table III): 0.03 µg/mL
11 | CCn1c(=Cc2sc3ccc(Cl)cc3[n+]2CC)sc(=C2Sc3ccccc3N2C)c1=O [Compound 40] | 6 | 200 | 0.03 | 
12 | CC[n+]1c(C=c2sc(=C3Sc4ccccc4N3C)c(=O)n2C2CCCCC2)oc2ccccc21 [Compound 42] | 2 | 100 | 0.02 | 
13 | CN1C(=c2sc(=Cc3oc4ccccc4[n+]3C)n(C)c2=O)Sc2ccccc21 [Compound 46] | 10 | 100 |  | IC50 ([2]; CX-1, Table III): 0.1 µg/mL
14 | CCn1c(=Cc2sc3ccccc3[n+]2CC)sc(=C2Sc3ccc(OC)cc3N2C)c1=O [Compound 47] | 6 | 150 | 0.04 | 
15 | CCn1c(=Cc2sc3c4ccccc4ccc3[n+]2CC)sc(=C2Sc3ccc(Cl)cc3N2C)c1=O [Compound 54] | 20 | 400 | 0.05 | 
16 | CCn1c(=Cc2[se]c3ccccc3[n+]2CC)sc(=C2Sc3ccc(Cl)cc3N2C)c1=O [Compound 63] | 20 | 100 |  | IC50 ([2]; CX-1, Table III): 0.2 µg/mL
17 | CCn1c(=CC2=[N+](CC)CCS2)sc(=C2Sc3ccc(OC)cc3N2C)c1=O [Compound 65] | 20 | 100 | 0.2 | 
18 | CCn1c(=CC2=[N+](CC)CCS2)sc(=C2Sc3ccc4ccccc4c3N2C)c1=O [Compound 86] | 10 | 200 | 0.05 | 
19 | CCn1c(=Cc2sc3c4ccccc4ccc3[n+]2CC)sc(=C2Sc3ccc4ccccc4c3N2C)c1=O [Compound 91] |  | 500 |  | CV-1 (IC50) [1, 7]: 20 µg/mL; CX-1 (IC50) ([2]; Table III): 0.04 µg/mL
20 | CCn1c(=Cc2sc3ccc(OC)cc3[n+]2CC)sc(=C2Sc3ccc4ccccc4c3N2C)c1=O [Compound 95] | 20 | 500 | 0.04 | 
21 | CCn1c(=Cc2oc3cc4ccccc4cc3[n+]2CC)sc(=C2Sc3ccc4ccccc4c3N2C)c1=O [Compound 96] | 20 | 333 | 0.06 | 

Row | Compound | IC50 [1, 6] [µg/mL] | Selectivity (ratio of IC50 for CV-1 and IC50 for CX-1) ([2]; CV-1/CX-1) | IC50 ([2]; Homo sapiens, CX-1, Table III) [µg/mL] | also measured
22 | CCn1c(=Cc2sc3ccccc3[n+]2CC)sc(=C2Sc3c(ccc4ccccc34)N2C)c1=O [Compound 98] | 8 | 160 | 0.05 | 
23 | CCn1c(=Cc2sc3c4ccccc4ccc3[n+]2CC)sc(=C2Sc3c(ccc4ccccc34)N2C)c1=O [Compound 99] | 10 | 100 | 0.1 | 
24 | CCn1c(=Cc2oc3ccccc3[n+]2CC)sc(=C2Oc3ccccc3N2C)c1=O [Compound 104] | 18 | 180 | 0.1 | 
25 | CCn1c(=Cc2sc3ccccc3[n+]2CC)sc(=C2Oc3ccc(OC)cc3N2C)c1=O [Compound 105] | 6 | 120 | 0.05 | 
26 | CCn1c(=Cc2sc3c4ccccc4ccc3[n+]2CC)sc(=C2Oc3ccc4ccccc4c3N2C)c1=O [Compound 115] | 6 | 120 | 0.05 | 
27 | CCn1c(=Cc2oc3ccccc3[n+]2CC)sc(=C2Oc3ccc4ccccc4c3N2C)c1=O [Compound 117] | 4 | 133 | 0.03 | 
28 | CCn1c(=Cc2sc3c4ccccc4ccc3[n+]2CC)sc(=C2SCCN2C)c1=O [Compound 121] | 20 | 200 | 0.1 | 
29 | CCn1c(=Cc2sc3ccccc3[n+]2CC)sc(=C2SC3=C(CCCC3)N2C)c1=O [Compound 129] | 10 | 100 | 0.1 | 
30 | CCn1c(=Cc2sc3c4ccccc4ccc3[n+]2CC)sc(=C2SC=C(C)N2C)c1=O [Compound 131] | 6 | 120 | 0.05 | 
31 | CCn1c(=Cc2sc3ccc4ccccc4c3[n+]2CC)sc(=C2C=Cc3ccccc3N2C)c1=O [Compound 163] | 20 | 667 | 0.03 | 
32 | CCn1c(=Cc2sc3ccc4ccccc4c3[n+]2CC)sc(=C2Oc3ccc(Cl)cc3N2C)c1=O [Compound 209] |  |  |  | IC50 ([1]; CV-1, 24 h, Table V): 20 µg/mL; IC50 ([1]; CV-1, 24 h, Table VII): 20 µg/mL; Selectivity [3]: 100; IC50 ([3]; Homo sapiens, LOX, 24 h, Table V, human melanoma, 24 hours treatment): 0.2 µg/mL; Selectivity [4]: 200; IC50 [4, 8]: 0.1 µg/mL
33 | CCn1c(=Cc2scc[n+]2CC)sc(=C2Oc3ccc(-c4ccccc4)cc3N2C)c1=O [Compound 210] | 10 | 100 | 0.1 | IC50 ([1]; CV-1, 24 h, Table IV): 10 µg/mL; IC50 ([1]; CV-1, 24 h, Table VII): 10 µg/mL; Selectivity [5]: 100; IC50 [5]: 0.1 µg/mL; Selectivity [4]: 111; IC50 [4, 8]: 0.09 µg/mL
34 | CCn1c(=Cc2sc3ccc4ccccc4c3[n+]2CC)sc(=C2Sc3ccc(Cl)cc3N2C)c1=O [Compound 223] | 20 | 200 | 0.1 | 
35 | CCn1c(=Cc2oc3cc4ccccc4cc3[n+]2CC)sc(=C2Sc3c(ccc4ccccc34)N2C)c1=O [Compound 237] |  |  |  | IC50 ([1]; CV-1, 24 h, Table VII): 8 µg/mL; Selectivity [4]: 267; IC50 [4, 8]: 0.03 µg/mL
36 | CCn1c(=Cc2sc3ccc4ccccc4c3[n+]2CC)sc(=C2Sc3c(ccc4ccccc34)N2C)c1=O [Compound 255] | 5 | 100 | 0.05 | 
37 | CCn1c(=Cc2sc3ccc4ccccc4c3[n+]2CC)sc(=C2Sc3ccc(C(F)(F)F)cc3N2C)c1=O [Compound 307] | 6 | 120 | 0.05 | 
38 | CCn1c(=CC2=[N+](CC)C(C)CS2)sc(=C2Sc3ccc4ccccc4c3N2C)c1=O (stereo not drawn) [Compound 309] | 4 | 400 | 0.01 | 
39 | CC[n+]1c(C=c2sc(=C3Sc4ccc5ccccc5c4N3C)c(=O)n2CC(=O)OC)sc2c3ccccc3ccc21 [Compound 311] | 20 | 667 | 0.03 | IC50 ([1]; CV-1, 24 h, Table IV): 20 µg/mL; Selectivity [5]: 400; IC50 [5]: 0.05 µg/mL
40 | CC[N+]1=C(C=c2sc(=C3Oc4ccc5ccccc5c4N3C)c(=O)n2Cc2ccccc2)SCC1 [Compound 314] | 10 | 200 | 0.05 | 
41 | C=CCn1c(=Cc2oc3ccc4ccccc4c3[n+]2C)sc(=C2Oc3c(ccc4ccccc34)N2C)c1=O [Compound 319] |  |  |  | IC50 ([1]; CV-1, 24 h, Table IV): 6 µg/mL; Selectivity [5]: 300; IC50 [5]: 0.02 µg/mL
42 | CCn1c(=Cc2ccc3ccccc3[n+]2CC)sc(=C2Sc3ccccc3N2C)c1=O [Compound 341] |  |  |  | CV-1 (IC50) ([1]; Table V): 6 µg/mL; CV-1 (IC50) ([1]; Table VII): 6 µg/mL; Selectivity [3]: 200; LOX(IC50) ([3]; Table V, human melanoma, 24 hours treatment): 0.03 µg/mL; Selectivity [4]: 200; CRL-1420(IC50) [4, 8]: 0.03 µg/mL
